Test results reported in patent publication US10786508B2, “Substituted imidazo[1,5-A]-pyrimidines and their use in the treatment of medical disorders” (Lysosomal Therapeutics Inc., priority 2014, dated 2020).
In brackets after ≈: the same amount, converted by molar mass.

Assays:
[1] = target: T1, glucocerebrosidase (Gcase) (Homo sapiens, UniProt P04062); assay: Glucocerebrosidase (Gcase) activation assay, 4-methylumbelliferyl-beta-D-glucopyranoside substrate, with saposin C; format: biochemical; conditions: 10 nM GCase, 100 nM saposin C, pH 4.7; for activation at 0.1 µM: read-out: Percent Gease Activation 0.1 μM Test Compound; for activation at 1 µM: read-out: Percent Gease Activation 1 μM Test Compound
T1 construct: micellar solution containing 10 nM GCase and 100 nM saposin C
T1 sequence (P04062 40-536): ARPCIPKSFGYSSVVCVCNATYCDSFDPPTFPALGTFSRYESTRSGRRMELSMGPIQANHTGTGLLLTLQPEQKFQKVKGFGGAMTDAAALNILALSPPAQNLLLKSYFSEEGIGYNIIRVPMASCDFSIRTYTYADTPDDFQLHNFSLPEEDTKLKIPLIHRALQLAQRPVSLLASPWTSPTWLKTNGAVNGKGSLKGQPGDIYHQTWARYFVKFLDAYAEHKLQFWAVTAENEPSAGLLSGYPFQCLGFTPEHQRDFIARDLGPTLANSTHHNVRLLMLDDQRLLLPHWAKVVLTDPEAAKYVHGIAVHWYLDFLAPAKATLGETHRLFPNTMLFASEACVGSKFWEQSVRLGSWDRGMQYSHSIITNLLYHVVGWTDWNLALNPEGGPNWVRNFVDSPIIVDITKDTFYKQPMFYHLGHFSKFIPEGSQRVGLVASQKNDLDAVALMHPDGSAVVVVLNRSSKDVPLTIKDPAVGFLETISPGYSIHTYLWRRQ
Experimental: The ability of exemplary compounds to activate glucocerebrosidase (Gcase) was measured.
A 484 μL aliquot of a 1.0 mg/mL solution of phosphatidylserine (PS) (Sigma P7769) in chloroform was evaporated under a stream of nitrogen for 1 hour. The lipid film was dissolved over 4 minutes of vigorous vortexing in 40 mL of 176 mM K2HPO4/50 mM citric acid (pH 4.7) containing 7.5 μL of triton X-100, resulting in a mixed micellar preparation with a composition of 0.32 mM triton and 0.37 mol % PS. 4-Methylumbelliferyl-beta-D-glucopyranoside (ACROS-337025000) was dissolved in the micellar solution to a final concentration of 2 mM for use as the reaction substrate.
Test compounds were diluted to the desired concentrations with dimethylsulfoxide (DMSO) from 10 mM stocks, and 0.41 μL of the DMSO compound mixture was added to 100 μL of micellar solution containing 10 nM GCase and 100 nM saposin C (Enzo ALX-201-262-C050). Pre-incubation was allowed to occur for 30 minutes at room temperature, after which the reaction was initiated by combining 25 μL of substrate solution with 25 μL of compound/GCase/saposin mixture. The reaction proceeded for 15 minutes at room temperature and was stopped by adding 150 μL of 1M glycine, pH 12.5. The endpoint of the reaction was monitored by measuring fluorescence intensity (excitation: 365 nm; emission: 440 nm) on a SpectraMax i3 instrument (Molecular Devices). Test compounds were screened at 1.0 and 0.1 μM final concentration, and subsequent 8-point dose response curves were obtained using 3-fold dilutions from a maximum final concentration of 5 μM.
For experiments in which the test compound was used at a concentration of 1.0 μM, the symbol “+” indicates less than 30% Gcase activation; the symbol “++” indicates Gcase activation in the range of 30% up to 60%; and the symbol “+++” indicates Gcase activation greater than 60%. For experiments in which the test compound was used at a concentration of 0.1 μM, the symbol “*” indicates less than 10% Gcase activation; the symbol “**” indicates Gcase activation in the range of 10% up to 20%; and the symbol “***” indicates greater than 20% Gcase activation.

[2] = Compound solubility in water; format: physicochemical

Structure (SMILES) | activation at 0.1 µM ([1]; 0.1 μM test compound) | activation at 1 µM ([1]; 1 μM test compound) | solubility [2] | Compound Solubility in Water [2] | Percent Gease Activation 0.1 μM Test Compound ([1]; 0.1 μM test compound) | Percent Gease Activation 1 μM Test Compound ([1]; 1 μM test compound)
C#Cc1ccc(NC(=O)c2ncn3c(C)cc(C)nc23)cc1 [III-1] | 10 to 20% | > 60% | < 1.5 µg/mL | – | – | –
COCC#Cc1ccc(NC(=O)c2ncn3c(C)cc(C)nc23)cc1 [III-2] | < 10% | 30 to 60% | 5.8 µg/mL (≈ 17.3 µM) | – | – | –
Cc1cc(C)n2cnc(C(=O)Nc3ccc(-c4cocn4)cc3)c2n1 [III-3] | < 10% | 30 to 60% | 4.8 µg/mL (≈ 14.4 µM) | – | – | –
Cc1cc(C)n2cnc(C(=O)Nc3ccc(-c4ncco4)cc3)c2n1 [III-4] | < 10% | 30 to 60% | 7.9 µg/mL (≈ 23.7 µM) | – | – | –
C#Cc1ccc(NC(=O)c2ncn3c(C)cc(C)nc23)cn1 [III-5] | < 10% | < 30% | 26.6 µg/mL (≈ 91.3 µM) | – | – | –
Cc1cc(C)n2cnc(C(=O)Nc3ncc(C)[nH]3)c2n1 [III-6] | < 10% | < 30% | > 54 µg/mL | – | – | –
Cc1cc(C)n2cnc(C(=O)Nc3ccc4[nH]c(C)cc4c3)c2n1 [III-7] | < 10% | < 30% | 0.7 µg/mL (≈ 2.19 µM) | – | – | –
Cc1cc(C)n2cnc(C(=O)Nc3ccc4[nH]ncc4c3)c2n1 [III-8] | < 10% | < 30% | 0.4 µg/mL (≈ 1.31 µM) | – | – | –
Cc1cc(C)n2cnc(C(=O)Nc3ccc4c(C)cc(=O)oc4c3)c2n1 [III-9] | < 10% | < 30% | 0.3 µg/mL (≈ 0.861 µM) | – | – | –
Cc1cc(C)n2cnc(C(=O)Nc3ccc4c(c3)CC(=O)N4)c2n1 [III-10] | < 10% | < 30% | 6.4 µg/mL (≈ 19.9 µM) | – | – | –
Cc1cc(C)n2cnc(C(=O)Nc3ccc4cn[nH]c4c3)c2n1 [III-11] | < 10% | < 30% | 0.5 µg/mL (≈ 1.63 µM) | – | – | –
Cc1cc(C)n2cnc(C(=O)Nc3ccc4c(c3)OCO4)c2n1 [III-12] | < 10% | < 30% | 3.4 µg/mL (≈ 11 µM) | – | – | –
Cc1cc(C)n2cnc(C(=O)Nc3ccc4nc(O)cc(C)c4c3)c2n1 [III-13] | < 10% | < 30% | 0.3 µg/mL (≈ 0.864 µM) | – | – | –
COc1cc(NC(=O)c2ncn3c(C)cc(C)nc23)ccc1-c1cnco1 [III-14] | < 10% | < 30% | 0.5 µg/mL (≈ 1.38 µM) | – | – | –
Cc1cc(C)n2cnc(C(=O)Nc3ccc4nc(C)oc4c3)c2n1 [III-15] | < 10% | < 30% | 3 µg/mL (≈ 9.34 µM) | – | – | –
Cc1cc(C)n2cnc(C(=O)Nc3ccc4c(c3)CCNC4)c2n1 [III-16] | < 10% | < 30% | 29.9 µg/mL (≈ 93 µM) | – | – | –
Cc1cc(C)n2cnc(C(=O)Nc3ccc4c(=O)cc(C)oc4c3)c2n1 [III-17] | < 10% | < 30% | 0.4 µg/mL (≈ 1.15 µM) | – | – | –
Cc1cc(C)n2cnc(C(=O)Nc3ccc4oncc4c3)c2n1 [III-18] | < 10% | < 30% | 2.3 µg/mL (≈ 7.48 µM) | – | – | –
Cc1cc(C)n2cnc(C(=O)Nc3ccc4oc(-c5ccncc5)nc4c3)c2n1 [III-19] | < 10% | 30 to 60% | 0.3 µg/mL (≈ 0.78 µM) | – | – | –
Cc1cc(C)n2cnc(C(=O)Nc3ccc4[nH]c(-c5ccco5)nc4c3)c2n1 [III-20] | < 10% | < 30% | 0.3 µg/mL (≈ 0.806 µM) | – | – | –
Cc1cc(C)n2cnc(C(=O)Nc3ccc4nc(C)sc4c3)c2n1 [III-21] | < 10% | < 30% | 1.1 µg/mL (≈ 3.26 µM) | – | – | –
Cc1cc(C)n2cnc(C(=O)Nc3ccc4c(c3)CCC4)c2n1 [III-22] | 10 to 20% | > 60% | 4.7 µg/mL (≈ 15.3 µM) | – | – | –

Further lines, results first:

activation at 0.1 µM ([1]; 0.1 μM test compound) | activation at 1 µM ([1]; 1 μM test compound) | solubility [2] | Compound Solubility in Water [2] | Percent Gease Activation 0.1 μM Test Compound ([1]; 0.1 μM test compound) | Percent Gease Activation 1 μM Test Compound ([1]; 1 μM test compound) | Structure (SMILES)
10 to 20% | > 60% | 0.3 µg/mL (≈ 0.736 µM) | – | – | – | Cc1cc(C)n2cnc(C(=O)Nc3ccc(Cl)c(COc4cccnc4)c3)c2n1 [III-23]
< 10% | < 30% | 6 µg/mL (≈ 18 µM) | – | – | – | Cc1cc(C)n2cnc(C(=O)Nc3ccc4nccc(O)c4c3)c2n1 [III-24]
< 10% | < 30% | – | 3.8 µg/mL | – | – | Cc1cc(C)n2cnc(C(=O)Nc3ccc4nccc(O)c4c3)c2n1 [III-25]
10 to 20% | > 60% | 0.5 µg/mL (≈ 1.44 µM) | – | – | – | Cc1cc(C)n2cnc(C(=O)Nc3ccc(C)c(-c4ncco4)c3)c2n1 [III-26]
< 10% | 30 to 60% | 0.2 µg/mL (≈ 0.544 µM) | – | – | – | Cc1cc(C)n2cnc(C(=O)Nc3ccc(Cl)c(-c4cnco4)c3)c2n1 [III-27]
> 20% | > 60% | 0.3 µg/mL (≈ 0.851 µM) | – | – | – | CCCCCOc1ccc(NC(=O)c2ncn3c(C)cc(C)nc23)cc1 [III-28]
10 to 20% | > 60% | 0.4 µg/mL (≈ 1.14 µM) | – | – | – | Cc1cc(C)n2cnc(C(=O)Nc3ccc(-c4cccs4)nc3)c2n1 [III-29]
> 20% | > 60% | 0.3 µg/mL (≈ 0.903 µM) | – | – | – | Cc1cc(C)n2cnc(C(=O)Nc3ccc(-c4ccco4)cc3)c2n1 [III-30]
– | – | – | <0.01 µg/mL | * (less than 10% Gcase activation) | + (less than 30% Gcase activation) | Cc1cc(C)n2cnc(C(=O)Nc3ccc(-c4ccco4)nc3)c2n1 [III-31]
< 10% | < 30% | 17.2 µg/mL (≈ 43.8 µM) | – | – | – | O=C(NC1CCCc2ccccc21)c1ncn2c(C(F)F)cc(C(F)F)nc12 (centres unmarked) [III-32]
10 to 20% | > 60% | – | – | – | – | COCc1cc(C2CC2)nc2c(C(=O)NC3(C)CCOc4c(F)ccc(F)c43)ncn12 (centres unmarked) [III-33]
< 10% | < 30% | 24.9 µg/mL (≈ 64.1 µM) | – | – | – | Cc1cc(C(F)(F)F)nc2c(C(=O)NC3(C)CCCc4ccccc43)ncn12 (centres unmarked) [III-34]
< 10% | < 30% | 21.6 µg/mL (≈ 62 µM) | – | – | – | Cc1cc(C(C)C)n2cnc(C(=O)N[C@H]3CCCc4ccccc43)c2n1 [III-35]
< 10% | > 60% | 11.9 µg/mL (≈ 35.6 µM) | – | – | – | Cc1cc(C)n2cnc(C(=O)NC3(C)CCCc4ccccc43)c2n1 (centres unmarked) [III-36]
< 10% | 30 to 60% | 28 µg/mL (≈ 73.2 µM) | – | – | – | Cc1cc(C(C)C)n2cnc(C(=O)NC3(C)CCOc4c(F)cccc43)c2n1 (centres unmarked) [III-37]
10 to 20% | > 60% | 14.9 µg/mL (≈ 44.4 µM) | – | – | – | [2H]C1(NC(=O)c2ncn3c(C)cc(C)nc23)CCCCc2ccccc21 (centres unmarked) [III-38]
< 10% | < 30% | – | – | – | – | C#Cc1ccc(C(C)(C)NC(=O)c2ncn3c(C)cc(C(F)(F)F)nc23)cc1 [III-39]
< 10% | < 30% | 40.5 µg/mL (≈ 105 µM) | – | – | – | C#Cc1cccc(C(C)(C)NC(=O)c2ncn3c(C)cc(C(F)(F)F)nc23)c1 [III-40]
10 to 20% | > 60% | 7.6 µg/mL (≈ 22.9 µM) | – | – | – | C#Cc1cccc(C(C)(C)NC(=O)c2ncn3c(C)cc(C)nc23)c1 [III-41]
< 10% | 30 to 60% | 18.7 µg/mL (≈ 56.3 µM) | – | – | – | C#Cc1ccc(C(C)(C)NC(=O)c2ncn3c(C)cc(C)nc23)cc1 [III-42]
10 to 20% | > 60% | 14.7 µg/mL (≈ 43.2 µM) | – | – | – | CCC(C)(NC(=O)c1ncn2c(C)cc(C)nc12)c1ccc(F)cc1 (centres unmarked) [III-43]
10 to 20% | > 60% | – | – | – | – | C#Cc1ccc(NC(=O)c2ncn3c(C)cc(C)nc23)c(F)c1 [III-48]
10 to 20% | > 60% | – | – | – | – | C#Cc1ccc(NC(=O)c2ncn3c(C)cc(C)nc23)cc1F [III-49]
